{
  "source": "patent US5677148A",
  "about": "(priority 1995, dated 1997)",
  "test_system": "A431 cells",
  "assay": "Sensitivity of DAB-EGF chimeric toxin cytotoxicity to chloroquine ([3H]leucine incorporation)",
  "conditions": "for activity at 10 µM: Homo sapiens; for Percent of Control Incorporation: 20-hour incubation",
  "note": "Where two headings read alike, the source gives them in different places.",
  "description": "To determine if the cytotoxicity of DAB486 EGF and DAB389 EGF is also dependent upon the same pathway, A431 cells were plated in sextuplicate wells of 96 well plates containing DAB486 EGF, DAB389 EGF or DMEM+10% FCS in the absence or presence of chloroquine (10^-5 M) (Sigma). […] Following a 20-hour incubation at 37° C., the cells were labeled with [^3 H] leucine, trypsinized, harvested onto glass fiber filter mats and counted.",
  "data": [
    {"smiles": "CCN(CC)CCCC(C)Nc1ccnc2cc(Cl)ccc12", "note": "(stereo not shown) [Chloroquine]", "values": [
      {"measurement": "activity at 10 µM", "setting": "A-431, read-out: Percent of Control Incorporation, chloroquine 10^-5 M, DAB389 EGF concentration 0, 20-hour incubation at 37° C., [3H]leucine, mean of three experiments", "value": 73, "unit": "%"},
      {"measurement": "activity at 10 µM", "setting": "A-431, read-out: Percent of Control Incorporation, chloroquine 10^-5 M, DAB486 EGF concentration 0, 20-hour incubation at 37° C., [3H]leucine, mean of three experiments", "value": 86, "unit": "%"},
      {"measurement": "Percent of Control Incorporation", "setting": "chloroquine 10^-5 M with DAB389 EGF 10^-11 M, [3H]leucine (no addition: 4)", "value": 61, "unit": "%"},
      {"measurement": "Percent of Control Incorporation", "setting": "chloroquine 10^-5 M with DAB389 EGF 10^-12 M, [3H]leucine (no addition: 57)", "value": 100, "unit": "%"},
      {"measurement": "Percent of Control Incorporation", "setting": "chloroquine 10^-5 M with DAB486 EGF 10^-8 M, [3H]leucine (no addition: 5)", "value": 60, "unit": "%"},
      {"measurement": "Percent of Control Incorporation", "setting": "chloroquine 10^-5 M with DAB486 EGF 10^-9 M, [3H]leucine (no addition: 25)", "value": 96, "unit": "%"},
      {"measurement": "Effect on the cytotoxicity of DT-EGF chimeric toxins", "setting": "chloroquine 10^-5 M, A431 cells, DAB486 EGF or DAB389 EGF", "value": "blocks the cytotoxicity"}
    ]}
  ]
}
